What was measured:
[1] = Toxicity of the Compounds of Formula I; format: in vivo; conditions: 10 mg/Kg intraperitoneally daily for 14 days, 5 male and 5 female CDI mice per group
Description: Three groups, each composed of 5 male and 5 female CDI mice, were injected intraperitoneally with 10 mg/Kg of 5-(N-benzyloxycarbonyl-L-phenylalaninamidomethyl)-3-bromo-4,5-dihydroisoxazole or 5-(N-benzyloxycarbonyl-L-para-tyrosinamidomethyl)-3-chloro-4,5-dihydroisoxazole daily for 14 days.

[2] = system: psoriatic plaque; assay: Psoriatic plaque chamber test (Example 13); format: in vivo, humans; conditions: 1% w/w in propylene glycol/Carbopol 940 gel, 0.05 ml in chamber on psoriatic plaque, five subjects, applied days 1-16, readings to day 23
Description: To determine the utility of the compounds of Formula (I) for treating psoriasis in humans, the procedure of Example 13 can be followed.
5-(N-benzyloxycarbonyl-L-phenylalaninamidomethyl)-3-bromo-4,5-dihydroisoxazole was levigated into a gel vehicle (see Example 14) to afford a concentration of 1% w/w. The gel vehicle contained primarily propylene glycol which was gelled with Carbopol 940.
0.05 ml of the gel containing active ingredient was filled into a 1 mm deep teflon chamber (Durhing chamber) which was then applied to the psoriatic plaque of each of the five subjects. The plaque was then covered with Scanpor® adhesive tape. The gel was applied on days 1, 3, 5, 8, 10, 12 and 16. Each time, fresh gel, chamber, and tape were used. Readings were taken on Days 5, 10, 12, 16 and 23 (one week off therapy). The presence or absence of a normal appearing epidermis was evaluated using a scale of 0 to 2.

[3] = system: blackhead-like lesions and whitehead-like lesions (spontaneous acne-like condition); assay: Mexican Hairless Dog Assays; format: in vivo, Mexican hairless beagle dog; conditions: two dogs
Source text: To determine the utility of the compounds of Formula (I) for treating acne in mammals, one can use the procedures described by DeYoung, et al. Another model examined is the Mexican hairless beagle dog, a procedure for which is set forth in Example 10.
Gel vehicle alone was not effective.

[4] = system: transglutaminase; conditions: prior-art inhibitors; cited from earlier work
[5] = 2.5% in gel (2.5% Klucel, 10% diisopropyl adipate, 80% ethanol, 5% propylene glycol), once daily, 14 days
[6] = 2.5% in gel (40% dimethylisosorbide, 55% ethanol, 2.5% carbomer 940)

SMILES | toxic effects [1] | clearing of lesions [3, 5] | clearing of lesions [3, 6] | also measured
O=C(N[C@@H](Cc1ccc(O)cc1)C(=O)NCC1CC(Cl)=NO1)OCc1ccccc1 (stereo partly drawn) [5-(N-benzyloxycarbonyl-L-para-tyrosinamidomethyl)-3-chloro-4,5-dihydroisoxazole] | No toxic effects | – | – | –
O=C(N[C@@H](Cc1ccccc1)C(=O)NCC1CC(Br)=NO1)OCc1ccccc1 (mixture of isomers) [5-(N-benzyloxycarbonyl-L-phenylalaninamidomethyl)-3-bromo-4,5-dihydroisoxazole] | No toxic effects | clearing of the majority of blackhead-like lesions and many whitehead-like lesions | positive results | activity against psoriasis (presence or absence of normal appearing epidermis, scale of 0 to 2) [2]: shows activity against psoriasis
O=C(N[C@@H](Cc1ccc(O)cc1)C(=O)NCC1CC(Br)=NO1)OCc1ccccc1 (mixture of isomers) [5-(N-benzyloxycarbonyl-L-paratyrosinamidomethyl)-3-bromo-4,5-dihydroisoxazole] | – | – | positive results | –
O=C(N[C@@H](Cc1ccccc1)C(=O)NCC1CC(Cl)=NO1)OCc1ccccc1 (mixture of isomers) [5-(N-benzyloxycarbonyl-L-phenylalaninamidomethyl)-3-chloro-4,5-dihydroisoxazole] | – | good clearing | positive results | –
NCCSSCCN [cystamine] | – | – | – | effective concentration [4]: greater than 10^-3 M; specificity for transglutaminases [4]: lacks specificity for transglutaminases
